Laboratory results from paper PMC8402917 (Viruses, 2021).

Target: T1, SARS-CoV-2 3CLpro (3CL protease, main protease) (Severe acute respiratory syndrome coronavirus 2, UniProt P0DTD1)
T1 construct: gene rep
Test: biochemical

Structure (SMILES): CC1=C(/C=C/C(C)=C/C=C/C(C)=C/C(=O)O)C(C)(C)CCC1 [all-trans retinoic acid]
- IC50: 24.7 ± 1.65 µM
